Laboratory results taken from the NIST ThermoML archive (doi:10.1021/je500647a).
Numbers after ± are expanded uncertainties.

Assay: mn = molality of the nth substance listed, in mol/kg
Conditions: 101 kPa, Liquid, Capillary tube (Ostwald / Ubbelohde) method

O=C[C@H](O)[C@H](O)[C@H](O)CO [D-ribose] + O
viscosity [mPa·s]
Conditions | m1 = 0.05 | m1 = 0.055 | m1 = 0.06 | m1 = 0.065 | m1 = 0.07 | m1 = 0.075 | m1 = 0.08 | m1 = 0.085 | m1 = 0.09 | m1 = 0.1
293.15 K | 1.019 ± 0.0084 | 1.021 ± 0.0083 | 1.022 ± 0.012 | 1.024 ± 0.016 | 1.026 ± 0.0082 | 1.027 ± 0.013 | 1.029 ± 0.0084 | 1.031 ± 0.0085 | 1.033 ± 0.0093 | 1.035 ± 0.0084
298.15 K | 0.9032 ± 0.0076 | 0.9047 ± 0.0076 | 0.906 ± 0.0074 | 0.9073 ± 0.0074 | 0.9085 ± 0.0074 | 0.91 ± 0.0074 | 0.9114 ± 0.0075 | 0.9127 ± 0.0074 | 0.9143 ± 0.0074 | 0.9168 ± 0.0092
303.15 K | 0.8071 ± 0.007 | 0.8082 ± 0.007 | 0.8092 ± 0.0069 | 0.8101 ± 0.0069 | 0.8113 ± 0.0069 | 0.8125 ± 0.0069 | 0.8135 ± 0.0069 | 0.8146 ± 0.0069 | 0.8157 ± 0.0069 | 0.8183 ± 0.0083
308.15 K | 0.7261 ± 0.0065 | 0.727 ± 0.0065 | 0.7277 ± 0.0064 | 0.7286 ± 0.0064 | 0.7292 ± 0.0065 | 0.7302 ± 0.0065 | 0.7313 ± 0.0065 | 0.7321 ± 0.0065 | 0.7333 ± 0.0065 | 0.7353 ± 0.0073
313.15 K | 0.657 ± 0.0061 | 0.6576 ± 0.0061 | 0.6581 ± 0.0087 | 0.6587 ± 0.017 | 0.6595 ± 0.0065 | 0.6601 ± 0.0093 | 0.6607 ± 0.0061 | 0.6616 ± 0.0062 | 0.6626 ± 0.0087 | 0.6642 ± 0.0062

NCC(=O)O [2-aminoacetic acid] + O
viscosity [mPa·s]
Conditions | 293.15 K | 298.15 K | 303.15 K | 308.15 K | 313.15 K
m1 = 0.025 | 1.011 ± 0.0083 | 0.8923 ± 0.0072 | 0.7994 ± 0.0068 | 0.7201 ± 0.0064 | 0.6549 ± 0.0061
m1 = 0.05 | 1.016 ± 0.0082 | 0.8947 ± 0.0073 | 0.8017 ± 0.0068 | 0.7213 ± 0.0064 | 0.6563 ± 0.0061
m1 = 0.1 | 1.022 ± 0.0082 | 0.9011 ± 0.0075 | 0.8056 ± 0.0068 | 0.7236 ± 0.0064 | 0.6582 ± 0.0061

CC(C)C[C@H](N)C(=O)O [L-leucine] + O
viscosity [mPa·s]
Conditions | 293.15 K | 298.15 K | 303.15 K | 308.15 K | 313.15 K
m1 = 0.025 | 1.02 ± 0.0085 | 0.8932 ± 0.0073 | 0.7948 ± 0.0068 | 0.7187 ± 0.0064 | 0.6481 ± 0.0061
m1 = 0.05 | 1.022 ± 0.0082 | 0.8936 ± 0.0073 | 0.8021 ± 0.0069 | 0.7237 ± 0.0064 | 0.6571 ± 0.0062
m1 = 0.1 | 1.026 ± 0.0085 | 0.8992 ± 0.0075 | 0.8011 ± 0.0068 | 0.7223 ± 0.0064 | 0.6533 ± 0.0062

OC[C@H]1OC(OC[C@H]2OC(O[C@]3(CO)O[C@H](CO)[C@@H](O)[C@@H]3O)[C@H](O)[C@@H](O)[C@@H]2O)[C@H](O)[C@@H](O)[C@H]1O (stereo partly drawn) [D-(+)-raffinose] + O
viscosity [mPa·s]
Conditions | m1 = 0.05 | m1 = 0.055 | m1 = 0.06 | m1 = 0.065 | m1 = 0.07 | m1 = 0.075 | m1 = 0.08 | m1 = 0.085 | m1 = 0.09 | m1 = 0.1
293.15 K | 1.056 ± 0.01 | 1.061 ± 0.01 | 1.066 ± 0.0095 | 1.071 ± 0.0083 | 1.079 ± 0.0083 | 1.087 ± 0.0094 | 1.095 ± 0.012 | 1.101 ± 0.011 | 1.108 ± 0.02 | 1.118 ± 0.01
298.15 K | 0.9281 ± 0.0077 | 0.9343 ± 0.0077 | 0.94 ± 0.0097 | 0.9448 ± 0.0097 | 0.9488 ± 0.0095 | 0.9553 ± 0.01 | 0.9597 ± 0.01 | 0.9674 ± 0.0096 | 0.9724 ± 0.01 | 0.9824 ± 0.013
303.15 K | 0.8259 ± 0.0072 | 0.8302 ± 0.0074 | 0.8349 ± 0.0087 | 0.8402 ± 0.0088 | 0.8435 ± 0.0086 | 0.8485 ± 0.0086 | 0.8521 ± 0.0091 | 0.8569 ± 0.0088 | 0.8631 ± 0.0092 | 0.8719 ± 0.011
308.15 K | 0.7393 ± 0.0068 | 0.7424 ± 0.007 | 0.7474 ± 0.0079 | 0.7516 ± 0.0081 | 0.7547 ± 0.0079 | 0.7585 ± 0.0079 | 0.7625 ± 0.008 | 0.7663 ± 0.0078 | 0.77 ± 0.008 | 0.7775 ± 0.01
313.15 K | 0.6657 ± 0.0075 | 0.6688 ± 0.0076 | 0.673 ± 0.008 | 0.6764 ± 0.0086 | 0.6792 ± 0.011 | 0.6822 ± 0.0063 | 0.6857 ± 0.0074 | 0.6881 ± 0.0073 | 0.6925 ± 0.011 | 0.698 ± 0.0071
